Where two headings read alike, the source gives them in different places. Some results are limits rather than exact numbers.

The subject of one data set is Aedes aegypti. As to the kind of experiment: Aedes aegypti (Yellow fever mosquito) larvae test. The settings on record: 48 h. The class given is in vivo.
Another data set relates to Plutella xylostella. As to the kind of experiment: Plutella xylostella (Diamond back moth) artificial diet test. The settings on record: 120 h, read-out: control of Plutella xylostella.
The next data set deals with Phytophthora infestans. As to the kind of experiment: whole plant or invertebrate. The settings on record: foliar, 96 h, read-out: control of fungal infection, Phytophthora infestans. The class given is in vivo.
In data set [1] the test system is Puccinia recondita f.sp. tritici. As to the kind of experiment: Puccinia recondita f.sp. tritici (wheat brown rust) leaf disk assay. The class given is in vivo. The settings on record: foliar, 216 h, preventive, nine days after inoculation, read-out: control of fungal infection, Puccinia recondita f.sp. tritici.
The test system of a further data set is Heliothis virescens. As to the kind of experiment: Heliothis virescens (Tobacco budworm) egg test on artificial diet. The settings on record: 96 h, read-out: control of Heliothis virescens.
The next data set has as its system Tetranychus urticae. The settings on record: foliar, 192 h, read-out: control of Tetranychus urticae.
For another data set, the system named is Pythium ultimum. As to the kind of experiment: Pythium ultimum (Damping off) growth inhibition in potato dextrose broth. The class given is cell-based. The settings on record: Globisporangium ultimum, 48 hours, read-out: control of fungal infection, Pythium ultimum.
Data set [2] concerns Erysiphe graminis f.sp. tritici. As to the kind of experiment: Erysiphe graminis f.sp. tritici (wheat powdery mildew) leaf disk assay. The settings on record: Blumeria graminis, foliar, 96 h, preventive, four days after inoculation, read-out: control of fungal infection, Erysiphe graminis fsp. tritici. The class given is in vivo.
For a further data set, the system named is Pyricularia oryzae. As to the kind of experiment: whole plant or invertebrate. Format: in vivo. The settings on record: foliar, 96 h.
Setting [3] is: read-out: control of fungal infection, Pyricularia oryzae (at least 60% list).

Turning to `Fc1cccc2c(N3[C@@H]4CC[C@H]3CC(Oc3ccc(C(F)(F)F)cn3)C4)ccnc12` (stereo partly shown) [Example 2.201], in the data set on Aedes aegypti, the pest or weed control at 2 ppm is ≥ 80%. The pest or weed control at 200 ppm (in the data set on Plutella xylostella; in the data set with Phytophthora infestans; in data set [1]; with Heliothis virescens; with Tetranychus urticae; in data set [2]) was ≥ 80% throughout. Also, the pest or weed control at 200 ppm with Pyricularia oryzae (setting [3]) is ≥ 60%. For the same compound, the inhibition of growth at 200 ppm with Pythium ultimum is ≥ 60%.
The melting point is the temperature of the solid-liquid transition. On to `Cc1csc(CC2CC3CCC(C2)N3c2ncnc3sccc23)n1` (stereo not shown) [Example 7.16], for which the melting point came out at 132 °C. The pest or weed control at 200 ppm in data set [1] was ≥ 80%. In the data set with Pythium ultimum, the inhibition of growth at 200 ppm is ≥ 60%.
For `Fc1cccc(CON=C2CC3CCC(C2)N3c2ncnc3sccc23)c1F` [Example 5.219], the pest or weed control at 2 ppm in the data set on Aedes aegypti was ≥ 80%. Besides, the pest or weed control at 200 ppm was ≥ 80% in the data set with Plutella xylostella; ≥ 80% in the data set with Phytophthora infestans; ≥ 80% in data set [1]; ≥ 80% in data set [2]; ≥ 60% in the data set with Pyricularia oryzae (setting [3]); ≥ 80% in the data set on Pyricularia oryzae (read-out: control of fungal infection, Pyricularia oryzae (at least 80% list)). Besides, the inhibition of growth at 200 ppm in the data set with Pythium ultimum was ≥ 60%.
The compound `Cc1ccc(OC2C[C@H]3CC[C@@H](C2)N3c2ccnc3c2c(C)nn3C)cn1` (stereo partly shown) [Example 2.164] came in with a melting point of 153 °C. For the same compound, the inhibition of growth at 200 ppm in the data set with Pythium ultimum is ≥ 60%. In data set [2], the pest or weed control at 200 ppm was ≥ 80%.
With `CCc1ncnc(N2C3CCC2CC(=NOCc2ccncc2)C3)c1Cl` [Example 5.6], in the data set with Aedes aegypti, the pest or weed control at 2 ppm is ≥ 80%. The pest or weed control at 200 ppm (in the data set on Phytophthora infestans; in [1]; with Tetranychus urticae) was ≥ 80% each time. The inhibition of growth at 200 ppm in the data set on Pythium ultimum was ≥ 60%.
In the case of `CS(=O)(=O)c1ccc(CON=C2CC3CCC(C2)N3c2ncnc3sccc23)cc1` [Example 5.248], the pest or weed control at 200 ppm (in the data set with Phytophthora infestans; in data set [1]; in the data set with Tetranychus urticae; in data set [2]) was ≥ 80% throughout. The inhibition of growth at 200 ppm in the data set with Pythium ultimum is ≥ 60%.
Take `CCc1ncnc(N2C3CCC2CC(=NOCc2ccc(S(C)(=O)=O)cc2)C3)c1Cl` [Example 5.106]: the pest or weed control at 200 ppm (in the data set on Phytophthora infestans; in data set [1]; in the data set with Tetranychus urticae; in data set [2]) was ≥ 80% in each case. Further, the inhibition of growth at 200 ppm in the data set with Pythium ultimum was ≥ 60%.
As to `FC(F)(F)c1cccc(OC2C[C@H]3CC[C@@H](C2)N3c2ccnc3c(Cl)cccc23)n1` (stereo partly shown) [Example 2.175], the melting point stood at 116 °C. The pest or weed control at 200 ppm in the data set with Phytophthora infestans was ≥ 80%. Moreover, in the data set on Pythium ultimum, the inhibition of growth at 200 ppm is ≥ 60%. For the same compound, the pest or weed control at 200 ppm with Pyricularia oryzae (setting [3]) is ≥ 60%.
For the compound `FC(F)(F)c1cccc(OC2C[C@H]3CC[C@@H](C2)N3c2ccnc3cc(Cl)ccc23)n1` (stereo partly shown) [Example 2.174], the melting point was 177 °C. Further, the inhibition of growth at 200 ppm with Pythium ultimum was ≥ 60%.
In the same order, the values of `Fc1cccc2c(N3[C@@H]4CC[C@H]3CC(Oc3cccc(C(F)(F)F)n3)C4)ccnc12` (stereo partly shown) [Example 2.172] are 133 °C and ≥ 60%.
For the compound `CCc1ncnc(N2C3CCC2CC(=NOCc2ccccn2)C3)c1Cl` [Example 5.41], the pest or weed control at 2 ppm in the data set on Aedes aegypti is ≥ 80%. For the same compound, the pest or weed control at 200 ppm (with Phytophthora infestans; in data set [1]; in the data set with Heliothis virescens; in [2]) was ≥ 80% throughout. Moreover, in the data set on Pythium ultimum, the inhibition of growth at 200 ppm was ≥ 60%.

Values taken from patent US20100331348A1, “TROPANE DERIVATIVES USEFUL AS PESTICIDES” (SYNGENTA CROP PROTECTION, INC., priority 2007, published 2010).
